# Tested on: not listed separately
# Assay: Resistance fold, ratio of EC50 for HIV1 harboring reverse transcriptase Y181C mutant […] to EC50 for wild type HIV1 […]
# Type: functional
# Conditions: not given
row,Structure (SMILES),Ratio EC50
1,COc1cc2cc(C#N)ccc2c(OC)c1Oc1cc(NCCC2=CCCCC2)nc(Nc2ccc(C#N)cc2)n1,11
2,CCC(CC)Nc1cc(Oc2c(OC)cc3cc(C#N)ccc3c2OC)nc(Nc2ccc(C#N)cc2)n1,10
3,COc1cc2cc(C#N)ccc2c(OC)c1Oc1cc(N2CCOCC2)nc(Nc2ccc(C#N)cc2)n1,8

# Tested on: not listed separately
# Assay: Resistance fold, ratio of EC50 for HIV1 harboring reverse transcriptase E138K mutant […] to EC50 for wild type HIV1 […]
# Type: functional
# Conditions: not given
row,Structure (SMILES),Ratio EC50
1,COc1cc2cc(C#N)ccc2c(OC)c1Oc1cc(NCCC2=CCCCC2)nc(Nc2ccc(C#N)cc2)n1,5
2,CCC(CC)Nc1cc(Oc2c(OC)cc3cc(C#N)ccc3c2OC)nc(Nc2ccc(C#N)cc2)n1,2
3,COc1cc2cc(C#N)ccc2c(OC)c1Oc1cc(N2CCOCC2)nc(Nc2ccc(C#N)cc2)n1,1

# Tested on: not listed separately
# Assay: Resistance fold, ratio of EC50 for HIV1 harboring reverse transcriptase L100I mutant […] to EC50 for wild type HIV1 […]
# Type: functional
# Conditions: not given
row,Structure (SMILES),Ratio EC50
1,COc1cc2cc(C#N)ccc2c(OC)c1Oc1cc(NCCC2=CCCCC2)nc(Nc2ccc(C#N)cc2)n1,50
2,CCC(CC)Nc1cc(Oc2c(OC)cc3cc(C#N)ccc3c2OC)nc(Nc2ccc(C#N)cc2)n1,46
3,COc1cc2cc(C#N)ccc2c(OC)c1Oc1cc(N2CCOCC2)nc(Nc2ccc(C#N)cc2)n1,14

# Tested on: Human immunodeficiency virus 1
# Assay: Antiviral activity against HIV1 harboring reverse transcriptase Y181C mutant infected in human MT4 cells assessed as protection against virus-induced cytopathic effect incubated for 5 days by MTT assay
# Type: functional, organism-based
# Conditions: Human immunodeficiency virus 1, MT4, 120 h
row,Structure (SMILES),EC50 [µM]
1,COc1cc2cc(C#N)ccc2c(OC)c1Oc1cc(NCCC2=CCCCC2)nc(Nc2ccc(C#N)cc2)n1,4.65
2,CCC(CC)Nc1cc(Oc2c(OC)cc3cc(C#N)ccc3c2OC)nc(Nc2ccc(C#N)cc2)n1,1.33
3,COc1cc2cc(C#N)ccc2c(OC)c1Oc1cc(N2CCOCC2)nc(Nc2ccc(C#N)cc2)n1,0.29

# Tested on: Human immunodeficiency virus 2
# Assay: Anti-HIV activity against HIV2 ROD infected in human MT4 cells assessed as reduction in virus-induced cytopathic effect incubated for 5 days by MTT assay
# Type: functional, organism-based
# Conditions: Human immunodeficiency virus 2, ROD, MT4, 120 h
row,Structure (SMILES),EC50 [µM]
1,COc1cc2cc(C#N)ccc2c(OC)c1Oc1cc(NCCC2=CCCCC2)nc(Nc2ccc(C#N)cc2)n1,> 1000
2,CCC(CC)Nc1cc(Oc2c(OC)cc3cc(C#N)ccc3c2OC)nc(Nc2ccc(C#N)cc2)n1,> 1000
3,COc1cc2cc(C#N)ccc2c(OC)c1Oc1cc(N2CCOCC2)nc(Nc2ccc(C#N)cc2)n1,> 1000

# Tested on: not listed separately
# Assay: Resistance fold, ratio of EC50 for HIV1 harboring reverse transcriptase K103N/Y181C double mutant […] to EC50 for wild type HIV1 […]
# Type: functional
# Conditions: not given
row,Structure (SMILES),Ratio EC50
1,COc1cc2cc(C#N)ccc2c(OC)c1Oc1cc(NCCC2=CCCCC2)nc(Nc2ccc(C#N)cc2)n1,90
2,CCC(CC)Nc1cc(Oc2c(OC)cc3cc(C#N)ccc3c2OC)nc(Nc2ccc(C#N)cc2)n1,555
3,COc1cc2cc(C#N)ccc2c(OC)c1Oc1cc(N2CCOCC2)nc(Nc2ccc(C#N)cc2)n1,634

# Target: Human immunodeficiency virus type 1 reverse transcriptase (Human immunodeficiency virus 1, UniProt Q72547)
# Assay: Inhibition of wild type HIV1 reverse transcriptase using oligo(dT)16 as primer measured after 40 mins by picogreen-dye based spectrofluorimetric analysis
# Conditions: not given
row,Structure (SMILES),IC50 [µM]
1,COc1cc2cc(C#N)ccc2c(OC)c1Oc1cc(NCCC2=CCCCC2)nc(Nc2ccc(C#N)cc2)n1,0.28
2,CCC(CC)Nc1cc(Oc2c(OC)cc3cc(C#N)ccc3c2OC)nc(Nc2ccc(C#N)cc2)n1,0.6
3,COc1cc2cc(C#N)ccc2c(OC)c1Oc1cc(N2CCOCC2)nc(Nc2ccc(C#N)cc2)n1,0.25

# Tested on: Human immunodeficiency virus 1
# Assay: Antiviral activity against HIV1 harboring reverse transcriptase F227L/V106A mutant infected in human MT4 cells assessed as protection against virus-induced cytopathic effect incubated for 5 days by MTT assay
# Type: functional, organism-based
# Conditions: Human immunodeficiency virus 1, MT4, 120 h
Structure (SMILES),EC50 [µM],IC50 [µM]
COc1cc2cc(C#N)ccc2c(OC)c1Oc1cc(NCCC2=CCCCC2)nc(Nc2ccc(C#N)cc2)n1,164,–
CCC(CC)Nc1cc(Oc2c(OC)cc3cc(C#N)ccc3c2OC)nc(Nc2ccc(C#N)cc2)n1,> 1000,–
COc1cc2cc(C#N)ccc2c(OC)c1Oc1cc(N2CCOCC2)nc(Nc2ccc(C#N)cc2)n1,–,> 1000

# Tested on: not listed separately
# Assay: Resistance fold, ratio of EC50 for HIV1 harboring reverse transcriptase K103N mutant […] to EC50 for wild type HIV1 […]
# Type: functional
# Conditions: not given
row,Structure (SMILES),Ratio EC50
1,COc1cc2cc(C#N)ccc2c(OC)c1Oc1cc(NCCC2=CCCCC2)nc(Nc2ccc(C#N)cc2)n1,1
2,CCC(CC)Nc1cc(Oc2c(OC)cc3cc(C#N)ccc3c2OC)nc(Nc2ccc(C#N)cc2)n1,1
3,COc1cc2cc(C#N)ccc2c(OC)c1Oc1cc(N2CCOCC2)nc(Nc2ccc(C#N)cc2)n1,3

# Tested on: not listed separately
# Assay: Selectivity index, ratio of CC50 for cytotoxicity against human MT4 cells to EC50 of Anti-HIV activity against HIV-1 IIIB infected in human MT4
# Type: toxicity, cell-based
# Conditions: read-out: Selectivity Index
row,Structure (SMILES),selectivity ratio
1,COc1cc2cc(C#N)ccc2c(OC)c1Oc1cc(NCCC2=CCCCC2)nc(Nc2ccc(C#N)cc2)n1,> 688
2,CCC(CC)Nc1cc(Oc2c(OC)cc3cc(C#N)ccc3c2OC)nc(Nc2ccc(C#N)cc2)n1,> 1930
3,COc1cc2cc(C#N)ccc2c(OC)c1Oc1cc(N2CCOCC2)nc(Nc2ccc(C#N)cc2)n1,> 6510

# Tested on: Human immunodeficiency virus 1
# Assay: Antiviral activity against HIV1 harboring reverse transcriptase K103N mutant infected in human MT4 cells assessed as protection against virus-induced cytopathic effect incubated for 5 days by MTT assay
# Type: functional, organism-based
# Conditions: Human immunodeficiency virus 1, MT4, 120 h
row,Structure (SMILES),EC50 [µM]
1,COc1cc2cc(C#N)ccc2c(OC)c1Oc1cc(NCCC2=CCCCC2)nc(Nc2ccc(C#N)cc2)n1,0.18
2,CCC(CC)Nc1cc(Oc2c(OC)cc3cc(C#N)ccc3c2OC)nc(Nc2ccc(C#N)cc2)n1,0.11
3,COc1cc2cc(C#N)ccc2c(OC)c1Oc1cc(N2CCOCC2)nc(Nc2ccc(C#N)cc2)n1,0.13

# Tested on: not listed separately
# Assay: Cytotoxicity against human MT4 cells assessed as reduction in cell viability incubated for 5 days by MTT assay
# Type: cell-based
# Conditions: human, MT4 cells; time 5 day
row,Structure (SMILES),CC50 at 120 h [µM]
1,COc1cc2cc(C#N)ccc2c(OC)c1Oc1cc(NCCC2=CCCCC2)nc(Nc2ccc(C#N)cc2)n1,> 125
2,CCC(CC)Nc1cc(Oc2c(OC)cc3cc(C#N)ccc3c2OC)nc(Nc2ccc(C#N)cc2)n1,> 125
3,COc1cc2cc(C#N)ccc2c(OC)c1Oc1cc(N2CCOCC2)nc(Nc2ccc(C#N)cc2)n1,> 125

# Tested on: not listed separately
# Assay: Resistance fold, ratio of EC50 for HIV1 harboring reverse transcriptase Y188L mutant […] to EC50 for wild type HIV1 […]
# Type: functional
# Conditions: not given
row,Structure (SMILES),Ratio EC50
1,COc1cc2cc(C#N)ccc2c(OC)c1Oc1cc(NCCC2=CCCCC2)nc(Nc2ccc(C#N)cc2)n1,445
2,CCC(CC)Nc1cc(Oc2c(OC)cc3cc(C#N)ccc3c2OC)nc(Nc2ccc(C#N)cc2)n1,192
3,COc1cc2cc(C#N)ccc2c(OC)c1Oc1cc(N2CCOCC2)nc(Nc2ccc(C#N)cc2)n1,62

# Tested on: Human immunodeficiency virus 1
# Assay: Antiviral activity against HIV1 harboring reverse transcriptase Y188L mutant infected in human MT4 cells assessed as protection against virus-induced cytopathic effect incubated for 5 days by MTT assay
# Type: functional, organism-based
# Conditions: Human immunodeficiency virus 1, MT4, 120 h
row,Structure (SMILES),EC50 [µM]
1,COc1cc2cc(C#N)ccc2c(OC)c1Oc1cc(NCCC2=CCCCC2)nc(Nc2ccc(C#N)cc2)n1,148
2,CCC(CC)Nc1cc(Oc2c(OC)cc3cc(C#N)ccc3c2OC)nc(Nc2ccc(C#N)cc2)n1,24.4
3,COc1cc2cc(C#N)ccc2c(OC)c1Oc1cc(N2CCOCC2)nc(Nc2ccc(C#N)cc2)n1,2.34

# Tested on: Human immunodeficiency virus 1
# Assay: Anti-HIV activity against HIV-1 IIIB infected in human MT4 cells assessed as reduction in virus-induced cytopathic effect incubated for 5 days by MTT assay
# Type: functional, organism-based
# Conditions: Human immunodeficiency virus 1, IIIB, MT4, 120 h
row,Structure (SMILES),EC50 [µM]
1,COc1cc2cc(C#N)ccc2c(OC)c1Oc1cc(NCCC2=CCCCC2)nc(Nc2ccc(C#N)cc2)n1,0.33
2,CCC(CC)Nc1cc(Oc2c(OC)cc3cc(C#N)ccc3c2OC)nc(Nc2ccc(C#N)cc2)n1,0.13
3,COc1cc2cc(C#N)ccc2c(OC)c1Oc1cc(N2CCOCC2)nc(Nc2ccc(C#N)cc2)n1,0.038

# Tested on: Human immunodeficiency virus 1
# Assay: Antiviral activity against HIV1 harboring reverse transcriptase L100I mutant infected in human MT4 cells assessed as protection against virus-induced cytopathic effect incubated for 5 days by MTT assay
# Type: functional, organism-based
# Conditions: Human immunodeficiency virus 1, MT4, 120 h
row,Structure (SMILES),EC50 [µM]
1,COc1cc2cc(C#N)ccc2c(OC)c1Oc1cc(NCCC2=CCCCC2)nc(Nc2ccc(C#N)cc2)n1,16.6
2,CCC(CC)Nc1cc(Oc2c(OC)cc3cc(C#N)ccc3c2OC)nc(Nc2ccc(C#N)cc2)n1,5.87
3,COc1cc2cc(C#N)ccc2c(OC)c1Oc1cc(N2CCOCC2)nc(Nc2ccc(C#N)cc2)n1,0.52

# Tested on: Human immunodeficiency virus 1
# Assay: Antiviral activity against HIV1 harboring reverse transcriptase K103N/Y181C double mutant infected in human MT4 cells assessed as protection against virus-induced cytopathic effect incubated for 5 days by MTT assay
# Type: functional, organism-based
# Conditions: Human immunodeficiency virus 1, MT4, 120 h
row,Structure (SMILES),EC50 [µM]
1,COc1cc2cc(C#N)ccc2c(OC)c1Oc1cc(NCCC2=CCCCC2)nc(Nc2ccc(C#N)cc2)n1,30
2,CCC(CC)Nc1cc(Oc2c(OC)cc3cc(C#N)ccc3c2OC)nc(Nc2ccc(C#N)cc2)n1,70.5
3,COc1cc2cc(C#N)ccc2c(OC)c1Oc1cc(N2CCOCC2)nc(Nc2ccc(C#N)cc2)n1,23.9

# Tested on: not listed separately
# Assay: Resistance fold, ratio of EC50 for HIV1 harboring reverse transcriptase F227L/V106A double mutant […] to EC50 for wild type HIV1 […]
# Type: functional
# Conditions: not given
row,Structure (SMILES),Ratio EC50
1,COc1cc2cc(C#N)ccc2c(OC)c1Oc1cc(NCCC2=CCCCC2)nc(Nc2ccc(C#N)cc2)n1,494
2,CCC(CC)Nc1cc(Oc2c(OC)cc3cc(C#N)ccc3c2OC)nc(Nc2ccc(C#N)cc2)n1,>7862
3,COc1cc2cc(C#N)ccc2c(OC)c1Oc1cc(N2CCOCC2)nc(Nc2ccc(C#N)cc2)n1,>26525

# Tested on: Human immunodeficiency virus 1
# Assay: Antiviral activity against HIV1 harboring reverse transcriptase E138K mutant infected in human MT4 cells assessed as protection against virus-induced cytopathic effect incubated for 5 days by MTT assay
# Type: functional, organism-based
# Conditions: Human immunodeficiency virus 1, MT4, 120 h
row,Structure (SMILES),EC50 [µM]
1,COc1cc2cc(C#N)ccc2c(OC)c1Oc1cc(NCCC2=CCCCC2)nc(Nc2ccc(C#N)cc2)n1,0.53
2,CCC(CC)Nc1cc(Oc2c(OC)cc3cc(C#N)ccc3c2OC)nc(Nc2ccc(C#N)cc2)n1,0.27
3,COc1cc2cc(C#N)ccc2c(OC)c1Oc1cc(N2CCOCC2)nc(Nc2ccc(C#N)cc2)n1,0.051
